12 compounds from patent US11458123B2 (Arvinas, Inc., priority 2016, dated 2022) can be followed below.

Molecules are shown by their SMILES.

For the first experiment, the system named is tau protein. The experiment can be described thus: Tau protein in vitro degradation assay (Western blot, Tau-13 antibody). It counts as cell-based, human. The conditions noted are these: SK-N-SH cells; 72 hours of incubation; tested at 300 nM, 100 nM, 33 nM and 11 nM; Western blot, Tau-13 antibody. The procedure, abridged:
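Tau degradation read by Tau-13 Western blot (detects all human tau forms) of SDS-PAGE-resolved lysates from SK-N-SH cells. Cells were plated at least 18 h before 72 h exposure to PROTACs at either 1000/300/100 nM or 300/100/33/11 nM.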
(In general: A western blot detects proteins with antibodies after separation by electrophoresis.)
With `CN(CCCO[C@H]1C[C@H](Oc2ccc(-c3ccc4c5cnccc5n(C)c4c3)cn2)C1)C(=O)COCC1CN(c2ccc3c(c2)C(=O)N(C2CCC(=O)NC2=O)C3=O)C1` (stereo partly drawn) [Compound 202, 2-((1-(2-(2,6-dioxopiperidin-3-yl)-1,3-dioxoisoindolin-5-yl)azetidin-3-yl)methoxy)-N-methyl-N-(3-((1r,3r)-3-((5-(5-methyl-5H-pyrido[4,3-b]indol-7-yl)pyridin-2-yl)oxy)cyclobutoxy)propyl)acetamide], the “Degradation activity (tau protein remaining; highest amount of degradation observed at any dosage)” value is “B (≤80% and >50% tau protein remaining after 72 hours of incubation with the test compound)”.
For `O=C1CCC(N2C(=O)c3ccc(OCCOCCOCCOCCOCCOc4ccc(-c5ccn6c(n5)nc5ccccc56)cn4)cc3C2=O)C(=O)N1` (stereo not drawn) [Compound 207, 5-((14-((5-(benzo[4,5]imidazo[1,2-a]pyrimidin-2-yl)pyridin-2-yl)oxy)-3,6,9,12-tetraoxatetradecyl)oxy)-2-(2,6-dioxopiperidin-3-yl)isoindoline-1,3-dione], the “Degradation activity (tau protein remaining; highest amount of degradation observed at any dosage)” value was “B (≤80% and >50% tau protein remaining after 72 hours of incubation with the test compound)”.
On to `Cn1c2ccncc2c2ccc(-c3ccc(OC4CN(C(=O)C56CC(CCCCCCCOc7ccc8c(c7)C(=O)N(C7CCC(=O)NC7=O)C8=O)(C5)C6)C4)nc3)cc21` (stereo not drawn) [Compound 184, 2-(2,6-dioxopiperidin-3-yl)-5-((7-(3-(3-((5-(5-methyl-5H-pyrido[4,3-b]indol-7-yl)pyridin-2-yl)oxy)azetidine-1-carbonyl)bicyclo[1.1.1]pentan-1-yl)heptyl)oxy)isoindoline-1,3-dione], for which the “Degradation activity (tau protein remaining; highest amount of degradation observed at any dosage)” value is recorded as “A (≤50% tau protein remaining after 72 hours of incubation with the test compound)”.
As for `Cn1c2ccncc2c2ccc(-c3ccc(O[C@H]4C[C@H](Oc5ccc(C#CCOc6ccc7c(c6)C(=O)N(C6CCC(=O)NC6=O)C7=O)nc5)C4)nc3)cc21` (stereo partly drawn) [Compound 117, 2-(2,6-dioxopiperidin-3-yl)-5-((3-(5-((1r,3r)-3-((5-(5-methyl-5H-pyrido[4,3-b]indol-7-yl)pyridin-2-yl)oxy)cyclobutoxy)pyridin-2-yl)prop-2-yn-1-yl)oxy)isoindoline-1,3-dione], the “Degradation activity* (highest amount of degradation observed at any dosage; tau protein remaining)” value is listed as “C (>80% tau protein remaining after 72 hours of incubation with the test compound)”.
Consider `O=C1CCC(N2C(=O)c3ccc(OCCCCCN4CCN(CCOCCCc5ccc(-c6ccc7c(c6)[nH]c6ccncc67)cn5)CC4)cc3C2=O)C(=O)N1` (stereo not drawn) [Compound 52, 5-((5-(4-(2-(3-(5-(5H-pyrido[4,3-b]indol-7-yl)pyridin-2-yl)propoxy)ethyl)piperazin-1-yl)pentyl)oxy)-2-(2,6-dioxopiperidin-3-yl)isoindoline-1,3-dione], for which the “Degradation activity* (highest amount of degradation observed at any dosage; tau protein remaining)” value is “C (>80% tau protein remaining after 72 hours of incubation with the test compound)”.
`Cn1c2ccncc2c2ccc(-c3ccc(OC4CC5(C4)CN(CCCCOCCCCOc4ccc6c(c4)C(=O)N(C4CCC(=O)NC4=O)C6=O)C5)nc3)cc21` (stereo not drawn) [Compound 107, 2-(2,6-dioxopiperidin-3-yl)-5-(4-(4-(6-((5-(5-methyl-5H-pyrido[4,3-b]indol-7-yl)pyridin-2-yl)oxy)-2-azaspiro[3.3]heptan-2-yl)butoxy)butoxy)isoindoline-1,3-dione]: the “Degradation activity* (highest amount of degradation observed at any dosage; tau protein remaining)” value was “C (>80% tau protein remaining after 72 hours of incubation with the test compound)”.
Take `Cn1c2ccncc2c2ccc(-c3ccc(OCCCCOCCCCN4CC5(CC(Oc6ccc7c(c6)C(=O)N(C6CCC(=O)NC6=O)C7=O)C5)C4)nc3)cc21` (stereo not drawn) [Compound 116, 2-(2,6-dioxopiperidin-3-yl)-5-((2-(4-(4-((5-(5-methyl-5H-pyrido[4,3-b]indol-7-yl)pyridin-2-yl)oxy)butoxy)butyl)-2-azaspiro[3.3]heptan-6-yl)oxy)isoindoline-1,3-dione]: the “Degradation activity* (highest amount of degradation observed at any dosage; tau protein remaining)” value is reported as “C (>80% tau protein remaining after 72 hours of incubation with the test compound)”.
Consider `Cn1c2ccncc2c2ccc(-c3ccc(O[C@H]4C[C@@H](Oc5ccc(C#CCCCCOc6ccc7c(c6)C(=O)N(C6CCC(=O)NC6=O)C7=O)cn5)C4)nc3)cc21` (stereo partly drawn) [Compound 144, 2-(2,6-dioxopiperidin-3-yl)-5-(6-(6-((1s,3s)-3-(5-(5-methyl-5H-pyrido[4,3-b]indol-7-yl)pyridin-2-yloxy)cyclobutoxy)pyridin-3-yl)hex-5-ynyloxy)isoindoline-1,3-dione], for which the “Degradation activity* (highest amount of degradation observed at any dosage; tau protein remaining)” value is reported as “C (>80% tau protein remaining after 72 hours of incubation with the test compound)”.
On the same count and under the same terms, as for `Cn1c2ccncc2c2ccc(-c3ccc(O[C@H]4C[C@H](Oc5cccc(OCCCCCCOc6ccc7c(c6)C(=O)N(C6CCC(=O)NC6=O)C7=O)n5)C4)nc3)cc21` (stereo partly drawn) [Compound 108, 2-(2,6-dioxopiperidin-3-yl)-5-((6-((6-((1r,3r)-3-((5-(5-methyl-5H-pyrido[4,3-b]indol-7-yl)pyridin-2-yl)oxy)cyclobutoxy)pyridin-2-yl)oxy)hexyl)oxy)isoindoline-1,3-dione], the entry is “C (>80% tau protein remaining after 72 hours of incubation with the test compound)”.

Still in this experiment, the particulars now being: SK-N-SH cells; 72 hours of incubation; tested at 1000 nM, 300 nM and 100 nM.
With `Cc1ncsc1-c1ccc([C@H](C)NC(=O)[C@@H]2C[C@@H](O)CN2C(=O)[C@@H](NC(=O)COCCOCCOc2ccc3nc(-c4ccc(N(C)C)cc4)ccc3c2)C(C)(C)C)cc1` [Compound 28, (2S,4R)-1-((S)-2-(2-(2-(2-(2-(4-(dimethylamino)phenyl)quinolin-6-yloxy)ethoxy)ethoxy)acetamido)-3,3-dimethylbutanoyl)-4-hydroxy-N—((S)-1-(4-(4-methylthiazol-5-yl)phenyl)ethyl)pyrrolidine-2-carboxamide], the “Activity* (highest amount of degradation observed at any dosage, as tau protein remaining)” value is “C (>80% tau protein remaining after 72 hours of incubation with the test compound)”.
As to `Cc1ncsc1-c1ccc(CNC(=O)[C@@H]2C[C@@H](O)CN2C(=O)[C@@H](NC(=O)COCCOCCOCCOCC(=O)N2CCN(c3ccn4c(n3)nc3ccccc34)CC2)C(C)(C)C)cc1` [Compound 24, (2S,4R)-1-((5)-17-(4-(benzo[4,5]imidazo[1,2-a]pyrimidin-2-yl)piperazin-1-yl)-2-(tert-butyl)-4,17-dioxo-6,9,12,15-tetraoxa-3-azaheptadecanoyl)-4-hydroxy-N-(4-(4-methylthiazol-5-yl)benzyl)pyrrolidine-2-carboxamide], the “Activity* (highest amount of degradation observed at any dosage, as tau protein remaining)” value is “C (>80% tau protein remaining after 72 hours of incubation with the test compound)”.
In the case of `O=C1CCC(N2C(=O)c3cccc(NCCOCCOCCOCCN4CCN(c5ccn6c(n5)nc5ccccc56)CC4)c3C2=O)C(=O)N1` (stereo not drawn) [Compound 25, 4-((2-(2-(2-(2-(4-(benzo[4,5]imidazo[1,2-a]pyrimidin-2-yl)piperazin-1-yl)ethoxy)ethoxy)ethoxy)ethyl)amino)-2-(2,6-dioxopiperidin-3-yl)isoindoline-1,3-dione], the “Activity* (highest amount of degradation observed at any dosage, as tau protein remaining)” value was “C (>80% tau protein remaining after 72 hours of incubation with the test compound)”.
